{"source": "patent US12064448B2", "about": "“Methods for reducing bioavailability and absorption of ingested substances” (Nanyang Technological University, priority 2017, dated 2024)", "tested_on": "pancreatic lipase", "test": "3-phase simulated digestion, pH-stat titration of fatty acids released in small intestinal phase", "format": "biochemical", "settings": "heavy cream, 13.3% fat, orlistat 4.8 mg/ml", "source_text": "Corn oils was purchased from Sigma, Inc. These aforementioned fat food models were combined with nanocellulose or other control fibers including psyllium husk (Sigma) and wheat dextrin (Sigma) or the lipase inhibitor orlistat (Sigma). To combine test materials with cream, water, cream and the test material were combined to achieve the desired final concentrations of each, and the mixture was vortexed for 30 seconds. To combine test fibers with corn oil, the oil and water components were first combined and homogenized at high speed for 1 minute. Fibers or orlistat were then added to the emulsion and the mixture was vortexed for 30 seconds.\nIn vivo simulated digestion was performed using a 3-phase (mouth, stomach, small intestine) method. Briefly, in the mouth phase of the gastrointestinal tract (GIT) simulator, the nano-enabled food was mixed with a simulated saliva fluid and incubated at 37° C. for 10 seconds. The resultant mouth digesta was then combined and incubated with a simulated gastric fluid and incubated for 2 hours at 37° C. on an orbital shaker to complete the stomach phase. […] Free fatty acid (FFA) at the beginning of the intestinal phase (before addition of lipase) and in the final digesta was measured using a fluorometric assay kit (Cayman Chemical Cat #700310). […]"}
{"smiles": "CCCCCCCCCCC[C@@H](C[C@@H]1OC(=O)[C@H]1CCCCCC)OC(=O)[C@H](CC(C)C)NC=O", "note": "[orlistat]", "values": [{"measurement": "reduction of lipase activity (NaOH titrant used, percentage of total free fatty acids released)", "value": 91.5, "unit": "%"}]}
